Experimental data taken from US9902696B2, “1,4-substituted piperidine derivatives” (Cephalon, Inc., priority 2015, dated 2018).
Counter-ions that a name gives are not always drawn.

These compounds were tested against T1, recombinant human baculovirus-expressed GST-tagged FASN (Homo sapiens, UniProt P49327) (assay: FASN enzyme activity assay, fluorescence-based detection of CoA with CPM). Conditions: 5 nM FASN, 150 μM NADPH, 10 μM acetyl-CoA, 25 μM malonyl-CoA, 90 minutes incubation; read-out: IC50 data for Additional Compounds of Formulae I-V(a): Activity.
T1 construct: GST
T1 sequence (P49327 whole entry): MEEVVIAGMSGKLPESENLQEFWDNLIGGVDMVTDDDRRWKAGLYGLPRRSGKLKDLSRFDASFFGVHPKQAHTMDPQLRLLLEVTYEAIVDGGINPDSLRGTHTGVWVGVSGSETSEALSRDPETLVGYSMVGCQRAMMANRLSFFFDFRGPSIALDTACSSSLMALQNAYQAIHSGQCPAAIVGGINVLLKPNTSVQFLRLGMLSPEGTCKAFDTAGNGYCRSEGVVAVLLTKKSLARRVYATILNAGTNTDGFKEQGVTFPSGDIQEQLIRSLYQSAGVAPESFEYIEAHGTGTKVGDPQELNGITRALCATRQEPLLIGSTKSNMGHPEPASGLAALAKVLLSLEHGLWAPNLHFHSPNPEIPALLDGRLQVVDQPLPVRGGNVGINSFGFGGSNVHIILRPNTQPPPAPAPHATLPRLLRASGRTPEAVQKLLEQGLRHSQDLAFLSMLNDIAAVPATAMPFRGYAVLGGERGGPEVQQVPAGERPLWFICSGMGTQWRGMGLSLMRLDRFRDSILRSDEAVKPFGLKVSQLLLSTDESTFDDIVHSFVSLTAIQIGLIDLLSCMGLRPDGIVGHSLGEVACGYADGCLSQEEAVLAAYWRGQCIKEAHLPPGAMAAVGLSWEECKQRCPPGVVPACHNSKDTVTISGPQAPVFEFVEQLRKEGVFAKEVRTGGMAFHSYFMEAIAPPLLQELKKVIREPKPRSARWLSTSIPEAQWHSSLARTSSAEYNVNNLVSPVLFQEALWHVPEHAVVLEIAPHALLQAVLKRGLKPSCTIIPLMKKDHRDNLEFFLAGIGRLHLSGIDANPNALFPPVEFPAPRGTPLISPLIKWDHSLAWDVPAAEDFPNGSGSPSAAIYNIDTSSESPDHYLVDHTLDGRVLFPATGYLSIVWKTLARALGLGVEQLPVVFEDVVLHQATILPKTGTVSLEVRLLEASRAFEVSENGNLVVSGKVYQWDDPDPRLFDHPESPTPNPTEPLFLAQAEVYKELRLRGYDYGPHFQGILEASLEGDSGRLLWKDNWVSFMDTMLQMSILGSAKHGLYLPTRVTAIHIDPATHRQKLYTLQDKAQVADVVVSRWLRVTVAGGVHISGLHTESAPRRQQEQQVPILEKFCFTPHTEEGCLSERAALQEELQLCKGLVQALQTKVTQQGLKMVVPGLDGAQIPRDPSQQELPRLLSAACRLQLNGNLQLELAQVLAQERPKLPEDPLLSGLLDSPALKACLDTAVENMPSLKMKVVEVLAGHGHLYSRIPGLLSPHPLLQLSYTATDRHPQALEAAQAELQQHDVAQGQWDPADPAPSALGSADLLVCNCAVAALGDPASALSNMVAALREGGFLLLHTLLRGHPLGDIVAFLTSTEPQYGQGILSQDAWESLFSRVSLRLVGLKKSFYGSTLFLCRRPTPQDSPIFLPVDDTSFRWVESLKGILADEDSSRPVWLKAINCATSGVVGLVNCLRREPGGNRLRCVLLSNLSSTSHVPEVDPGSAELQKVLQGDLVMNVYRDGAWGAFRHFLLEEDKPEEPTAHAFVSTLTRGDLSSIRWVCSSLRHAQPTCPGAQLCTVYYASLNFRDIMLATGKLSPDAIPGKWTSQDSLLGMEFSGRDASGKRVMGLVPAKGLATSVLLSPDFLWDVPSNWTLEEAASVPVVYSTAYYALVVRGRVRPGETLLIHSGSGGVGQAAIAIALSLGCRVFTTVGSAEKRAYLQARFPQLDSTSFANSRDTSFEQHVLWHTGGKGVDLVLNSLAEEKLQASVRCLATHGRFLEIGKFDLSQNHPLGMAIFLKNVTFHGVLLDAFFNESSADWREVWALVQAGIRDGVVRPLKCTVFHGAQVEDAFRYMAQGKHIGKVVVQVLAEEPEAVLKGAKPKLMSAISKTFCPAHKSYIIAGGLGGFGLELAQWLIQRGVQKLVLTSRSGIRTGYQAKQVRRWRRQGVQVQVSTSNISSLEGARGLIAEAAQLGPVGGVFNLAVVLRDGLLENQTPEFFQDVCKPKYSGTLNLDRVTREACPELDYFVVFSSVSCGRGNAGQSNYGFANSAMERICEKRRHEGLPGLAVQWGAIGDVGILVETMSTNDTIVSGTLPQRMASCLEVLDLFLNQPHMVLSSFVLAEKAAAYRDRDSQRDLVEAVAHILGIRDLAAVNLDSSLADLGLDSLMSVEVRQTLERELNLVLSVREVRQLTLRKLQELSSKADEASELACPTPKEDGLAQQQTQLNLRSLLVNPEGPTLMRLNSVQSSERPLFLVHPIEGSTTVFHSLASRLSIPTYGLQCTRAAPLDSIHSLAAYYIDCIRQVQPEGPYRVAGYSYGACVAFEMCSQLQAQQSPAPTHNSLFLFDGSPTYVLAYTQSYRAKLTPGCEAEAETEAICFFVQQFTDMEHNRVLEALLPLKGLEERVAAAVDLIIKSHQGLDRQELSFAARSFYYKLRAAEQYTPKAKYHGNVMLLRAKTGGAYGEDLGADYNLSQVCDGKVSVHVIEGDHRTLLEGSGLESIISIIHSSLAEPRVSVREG
Type: biochemical
Source text: FASN Enzyme activity may be determined by detecting coenzyme A (CoA), a product of FASN-catalyzed synthesis of palmitate from acetyl-CoA and malonyl-CoA with NADPH as a cofactor. The assay is fluorescence-based and measures the interaction of free CoA with 7-diethylamino-3-(4′-malemimidylphenyl)-4-methylcoumarin (CPM; Life Technologies, CA) as described in Chung et al (2008). The coumarin derivative CPM contains a thiol-reactive maleimide that becomes fluorescent upon interaction with the sulfhydryl group of CoA.
For the example compounds described herein, the reaction was performed in 384-well low volume non-binding plates (Corning, N.Y.) using recombinant human baculovirus-expressed GST-tagged FASN. The 20-μL assay mixture contained 50 mM HEPES (pH 7.5), 5 nM FASN, 150 μM NADPH (Sigma, St. Louis, Mo.), 10 μM acetyl-CoA (Sigma), 25 μM malonyl-CoA (Sigma) and test compound [diluted in dimethyl sulfoxide (DMSO); 0.5% DMSO final in assay after 100 nL addition]. See, Chung et al.; “A fluorescence-based thiol quantification assay for ultra-high-throughput screening for inhibitors of coenzyme A production,” Assay Drug Dev Tech 2008; 6:361-374.
The reaction was initiated by adding malonyl-CoA, followed by incubation for 90 minutes at […]. A stock solution of the CPM reagent was prepared in DMSO at […] and stored at […]. To detect CoA produced in the FASN reaction, the CPM stock was diluted to […] in 70% ethanol and added at 4 μL/well to the assay plate. The reaction mixture was then incubated for 30 minutes. Fluorescence was measured using the EnVision™ 2102 multi-label plate reader (PerkinElmer, Waltham, Mass.) utilizing a general dual mirror, a 390 nm excitation filter and a 530 nm emission filter. Data analysis was performed using ActivityBase (IDBS, Guilford, UK). IC50 values were calculated by plotting the percent inhibition versus log 10 of the concentration of the compound, and fitting to the nonlinear regression sigmoidal dose-response (variable slope) equation in XLFit (IDBS).

IC50 [nM]	SMILES
1000 to 10000	Cc1c(-c2ccc(OC3CCN(C(=O)OC(C)(C)C)CC3)cc2)ccc2nccn12 [Example 605, tert-Butyl 4-[4-(5-methylimidazo[1,2-a]pyridin-6-yl)phenoxy]piperidine-1-carboxylate]
1000 to 10000	Cc1c(-c2ccc(OC3CCN(C(=O)NO)CC3)cc2)ccc2cccnc12 [Example 554, 4-[4-(8-Methyl-7-quinolyl)phenoxy]piperidine-1-carbohydroxamic acid, HCl]

Same assay, conditions: 5 nM FASN, 150 μM NADPH, 10 μM acetyl-CoA, 25 μM malonyl-CoA, 90 minutes incubation; read-out: IC50 data for Compounds of Formulae I-V/V(a): Activity

IC50 [nM]	SMILES
1 to 99	CCC(=O)N1CCC(Oc2ccc(-c3cnc4sccc4c3)cc2)CC1 [Example 250, 1-[4-(4-Thieno[2,3-b]pyridin-5-yl-phenoxy)-piperidin-1-yl]-propan-1-one, TFA salt]
1 to 99	Cc1c(-c2ccc(OC3CCN(C(=O)[C@H]4CCCO4)CC3)cc2)ccc2nccn12 [Example 285, {4-[4-(5-Methylimidazo[1,2-a]pyridin-6-yl)-phenoxy]-piperidin-1-yl}-(R)-tetrahydrofuran-2-yl-methanone]
100 to 999	CCOc1c(-c2ccc(OC3CCN(C(=O)C4CC4)CC3)cc2)ccc2cccnc12 [Example 168, Cyclopropyl-{4-[4-(8-ethoxyquinolin-7-yl)-phenoxy]-piperidin-1-yl}-methanone, HCl]
1 to 99	O=C(N1CCC(Oc2ccc(-c3cnc4ccccc4n3)cc2)CC1)N1CCCO1 [Example 81, Isoxazolidin-2-yl-[4-(4-quinoxalin-2-yl-phenoxy)-piperidin-1-yl]-methanone]
1000 to 10000	CC(=O)CC(=O)N1CCC(Oc2ccc(-c3cnc4ccccc4c3)cc2)CC1 [Example 242, 1-[4-(4-Quinolin-3-yl-phenoxy)-piperidin-1-yl]-butane-1,3-dione]
1 to 99	COc1cc(-c2ccc(OC3CCN(C(=O)[C@H]4CCCO4)CC3)cc2)cn2nccc12 [Example 424, {4-[4-(4-Methoxypyrazolo[1,5-a]pyridin-6-yl)-phenoxy]-piperidin-1-yl}-(R)-tetrahydrofuran-2-yl-methanone, HCl]
100 to 999	CCC(=O)N1CCC(Oc2ccc(-c3cnc4ccccc4n3)cc2)CC1 [Example 66, 1-[4-(4-Quinoxalin-2-yl-phenoxy)-piperidin-1-yl]-propan-1-one]
1 to 99	CCC(=O)N1CCC(Oc2ccc(-c3ccc4cccnc4c3OC)cc2F)CC1 [Example 219, 1-{4-[2-Fluoro-4-(8-methoxy-quinolin-7-yl)-phenoxy]-piperidin-1-yl}-propan-1-one]
1000 to 10000	CCC(=O)N1CCC(Oc2ccc(-c3cnc4cc(OC)c(Cl)cc4c3)cc2)CC1 [Example 447, 1-{4-[4-(6-Chloro-7-methoxyquinolin-3-yl)-phenoxy]-piperidin-1-yl}-propan-1-one]
100 to 999	CCC(=O)N1CCC(Oc2ccc(-c3cnc4ccccc4c3C)cc2F)CC1 [Example 228, 1-{4-[2-Fluoro-4-(4-methylquinolin-3-yl)-phenoxy]-piperidin-1-yl}-propan-1-one]
100 to 999	O=C(C1CC1)N1CCC(Oc2cc(F)c(-c3cnc4ccccc4c3)cc2F)CC1 [Example 217, Cyclopropyl-[4-(2,5-difluoro-4-quinolin-3-yl-phenoxy)-piperidin-1-yl]-methanone]
100 to 999	CCC(=O)N1CCC(Oc2ccc(-c3ccc4cnn(C)c4c3)cc2)CC1 [Example 249, 1-{4-[4-(1-Methyl-1H-indazol-6-yl)-phenoxy]-piperidin-1-yl}-propan-1-one, TFA salt]
1000 to 10000	CC(C)C(=O)N1CCC(Oc2ccc(-c3ccc4cnccc4c3)nc2)CC1 [Example 148, 1-[4-(6-Isoquinolin-6-yl-pyridin-3-yloxy)-piperidin-1-yl]-2-methyl-propan-1-one, 2HCl]
1000 to 10000	CN1CCN(c2nccc3cc(-c4ccc(OC5CCN(C(=O)[C@H]6CCCO6)CC5)cc4)ccc23)CC1 [Example 455]
1 to 99	CCC(=O)N1CCC(Oc2ccc(-c3cnc4c(C)cccc4c3)cc2)CC1 [Example 486, 1-{4-[4-(8-Methylquinolin-3-yl)-phenoxy]-piperidin-1-yl}-propan-1-one, HCl]
100 to 999	CCC(=O)N1CCC(Oc2ccc(-c3cc4ccccc4o3)cc2)CC1 [Example 245, 1-[4-(4-Benzofuran-2-yl-phenoxy)-piperidin-1-yl]-propan-1-one]
100 to 999	CCC(=O)N1CCC(Oc2ccc(-c3ccc4cccnc4c3OCCOC)cc2)CC1 [Example 178, 1-[4-[4-[8-(2-Methoxyethoxy)-7-quinolyl]phenoxy]-1-piperidyl]propan-1-one, HCl]

IC50 [nM]	SMILES
100 to 999	Cc1c(-c2ccc(OC3CCN(C(=O)N4CCOCC4)CC3)cc2)ccc2cccnc12 [Example 99, [4-[4-(8-methyl-7-quinolyl)phenoxy]-1-piperidyl]-morpholino-methanone]
1000 to 10000	O=CN1CCC(Oc2ccc(-c3cnc4ccccc4c3)cc2)CC1 [Example 153, 4-(4-Quinolin-3-yl-phenoxy)-piperidine-1-carbaldehyde, HCl]
1000 to 10000	CC(C)C(=O)N1CCC(Oc2ccc(-c3ccc(-c4ccccc4)nc3)cc2)CC1 [Example 379, 2-Methyl-1-{4-[4-(6-phenylpyridin-3-yl)-phenoxy]-piperidin-1-yl}-propan-1-one]
1 to 99	Cc1c(-c2ccc(OC3CCN(C(=O)C(C)F)CC3)cc2)ccc2cccnc12 (stereo not drawn) [Example 359, 2-Fluoro-1-{4-[4-(8-methylquinolin-7-yl)-phenoxy]-piperidin-1-yl}-propan-1-one, HCl]
1000 to 10000	CC(C)C(=O)N1CCC(Oc2ccc(-c3ccc4occc4c3)cc2)CC1 [Example 9, 1-[4-(4-Benzofuran-5-yl-phenoxy)-piperidin-1-yl]-2-methyl-propan-1-one]
1000 to 10000	Cc1c(-c2ccc(OC3CCN(C(=O)C4(C(F)(F)F)CC4)CC3)cc2)ccc2cccnc12 [Example 315, {4-[4-(8-Methylquinolin-7-yl)-phenoxy]-piperidin-1-yl}-(1-trifluoro-methylcyclopropyl)-methanone]
100 to 999	CCC(=O)N1CCC(Oc2ccc(-c3ccc4c(C)ncc(C)c4c3)cc2)CC1 [Example 469, 1-[4-[4-(1,4-Dimethyl-6-isoquinolyl)phenoxy]-1-piperidyl]propan-1-one, HCl]
1 to 99	COc1c(-c2ccc(OC3CCN(C(=O)C4(O)CC4)CC3)cc2)ccc2cccnc12 [Example 303, (1-Hydroxycyclopropyl)-{4-[4-(8-methoxy-quinolin-7-yl)-phenoxy]-piperidin-1-yl}-methanone]
1000 to 10000	CCC(=O)N1CCC(Oc2ccc(-c3ccnc(Oc4ccccc4)c3)cc2)CC1 [Example 409, 1-{4-[4-(2-Phenoxypyridin-4-yl)-phenoxy]-piperidin-1-yl}-propan-1-one]
1000 to 10000	CCC(=O)N1CCC(Oc2ccc(-c3ccc4cccnc4c3OCCN3CCCC3)cc2)CC1 [Example 173, 1-(4-{4-[8-(2-Pyrrolidin-1-yl-ethoxy)-quinolin-7-yl]-phenoxy}-piperidin-1-yl)-propan-1-one, HCl]
1000 to 10000	CCC(=O)N1CCC(Oc2ccc(-c3cnc4ccsc4c3)cc2)CC1 [Example 264, 1-[4-(4-Thieno[3,2-b]pyridin-6-yl-phenoxy)-piperidin-1-yl]-propan-1-one, TFA salt]
1 to 99	CCC(=O)N1CCC(Oc2ccc(-c3ccc4cccnc4c3Cl)cc2)CC1 [Example 261, 1-{4-[4-(8-Chloroquinolin-7-yl)-phenoxy]-piperidin-1-yl}-propan-1-one]
100 to 999	Cc1c(-c2ccc(OC3CCN(C(=O)C4(N)CC4)CC3)cc2)ccc2nccn12 [Example 305, (1-Aminocyclopropyl)-{4-[4-(5-methyl-imidazo[1,2-a]pyridin-6-yl)-phenoxy]-piperidin-1-yl}-methanone]
1000 to 10000	CCC(=O)N1CCC(Nc2ccc(-c3cnc4ccccc4c3)cc2)CC1 [Example 526, 1-[4-(4-Quinolin-3-yl-phenylamino)-piperidin-1-yl]-propan-1-one, HCl]
100 to 999	O=C(C1CCC1)N1CCC(Oc2ccc(-c3ccc4ccccc4n3)cc2)CC1 [Example 41, Cyclobutyl-[4-(4-quinolin-2-yl-phenoxy)-piperidin-1-yl]-methanone]
100 to 999	CNC(=O)N1CCC(Oc2ccc(-c3ccc4cccnc4c3OC)cc2)CC1 [Example 85, 4-[4-(8-Methoxyquinolin-7-yl)-phenoxy]-piperidine-1-carboxylic acid methylamide]
1 to 99	Nc1cc2cc(-c3ccc(OC4CCN(C(=O)[C@H]5CCCO5)CC4)cc3)ccc2cn1 [Example 436, {4-[4-(3-Aminoisoquinolin-6-yl)-phenoxy]-piperidin-1-yl}-(R)-tetrahydro-furan-2-yl-methanone]
